Results published in patent US20220273598A1, “METHOD FOR TREATING ALZHEIMER'S DISEASE BY INHIBITING UPTAKE OF AMINO ACIDS BY T CELLS” (SHANGHAI GREEN VALLEY PHARMACEUTICAL CO., LTD., priority 2019, published 2022).
Entries after “also recorded” stand apart in the source; their conditions may differ.

Legend:
C57 mice = assay: Intraperitoneal injection of phenylalanine and isoleucine, blood Th1 cells by FACS; type: in vivo, mouse; details: WT mice, intraperitoneal injection 50 mg/kg for 4 days
Protocol: Animals. Tg mice and co-housed WT mice (corresponding WT mice generated by mating Tg mice and C57 mice) were housed in the same cage after birth. WT mice (C57) were housed in separate cages to avoid cross-transfer of microbiota. All mice were kept in a 23° C. room with a 12-hour (h) light-dark cycle. Mice were randomly assigned to different groups before treatment. For time course analysis of Tg mice, male and female Tg mice were sacrificed at 2, 3, 5, 7 and 9 months of age. The mouse brain was collected and stained for immune cell analysis and cytokine analysis. Before the mice were sacrificed, feces were collected for gut microbiota analysis. For OM1 treatment, at the age of 6.5 months, based on 450 mg b.i.d. (twice a day) in the phase III trial, Tg mice were treated with 100 mg/kg OM1 by oral administration once a day for one month. Behavioral tests were performed to monitor cognitive activity after the last treatment. […] All mouse movements that occur in PhenoTyper (HomeCage) are recorded by a computerized tracking system, which calculates the time and number of entrances required to reach 80% of the performance standard (Noldus, Ethovision). […]
Flow cytometry sample preparation and analysis. […] All samples were counted and adjusted to a density of 2-3×10^6/100 μL, labeled with a Live/Dead kit for 30 min, and then centrifuged at 500×g for 3 min at 4° C. […]

naive CD4+ T cells = assay: In vitro differentiation and proliferation induced by phenylalanine and isoleucine; type: cell-based, mouse; details: amino acid added directly to naive CD4+ T cell culture; for Th1 cell proliferation: CellTrace
Protocol: In Vitro differentiation and proliferation induced by phenylalanine and isoleucine. Naive CD4^+ T cells were separated from the splenocytes of 8-month-old C57BL/6 female mice using the Naive CD4^+ T cell Isolation Kit (Stem Cell, #19765), and the cells were stained with CellTrace (Thermo Fisher, #C34557). A total of 1×10^5 cells/well in 0.2 mL of RPMI-1640 medium were plated in 96-well plates, and the culture medium was supplemented with cytokines or blocking antibodies. Th0: 10 ng/mL mIL-2; Th1:10 ng/mL mIL-2, 5000 ng/mL 11B11. Phenylalanine (final concentration, 2 mmol/L), isoleucine (final concentration, 2 mmol/L) and OM1 (final concentration, 100 μg/mL) were added into the indicated wells, respectively. After incubation at 37° C. in 5% CO2 for 5 days, cells were acquired on a BD Fortessa cytometer, and data were analyzed using FlowJo software.

[1] = test system: 5×FAD transgenic (Tg) mice; assay: Flow cytometry of Th1 cells and M1 microglia in brain homogenate; type: in vivo, mouse; details: 6-month-old 5×FAD mice, 50 mg/kg intraperitoneal every day for one month, versus vehicle
Protocol: Animals. […] Mice were randomly assigned to different groups before treatment. […] The mouse brain was collected and stained for immune cell analysis and cytokine analysis. […] For OM1 treatment, at the age of 6.5 months, based on 450 mg b.i.d. (twice a day) in the phase III trial, Tg mice were treated with 100 mg/kg OM1 by oral administration once a day for one month. […] The brains and feces of the mice were then used for different analyses.
Flow cytometry sample preparation and analysis. Mice were anesthetized, blood samples were collected into EDTA-containing tubes, and red blood cells were removed using 1×red blood lysis buffer. Before tissue collection, the brains were perfused with ice-cold PBS to avoid sampling the circulating blood immune cells, and the brains were removed, chopped into pieces and dissected according to the introduction of the Adult Brain Dissociation Kit (Miltenyi, Cat No. 130-107-677) using the gentleMACS dissociator (Miltenyi Biotec). The brain homogenate was filtered through a 70-μm cell strainer and centrifuged at 300×g for 5 min at 4° C. The cell pellet was resuspended in cold PBS buffer and centrifuged again at 300×g for 5 min at 4° C. All samples were counted and adjusted to a density of 2-3×10^6/100 μL, labeled with a Live/Dead kit for 30 min, and then centrifuged at 500×g for 3 min at 4° C. The cells were resuspended in 100 μL PBS buffer, blocked with anti-CD16/32 (Biolegend, Cat No. 101320) for 10 min, and incubated with the antibody according to the manufacturers' protocols at 4° C. for 30 min. […]

SLC7A5 = target: T1, SLC7A5 (Mus musculus, UniProt Q9Z127); assay: Uptake of 13C-labelled phenylalanine by naive CD4+ T cells; type: cell-based; details: 0.5 h incubation
T1 construct: endogenous in cells; host or cells: naive CD4+ T cells from splenocytes of C57BL/6 mice (Th0 / IL-12-induced Th1)
Protocol: Uptake of phenylalanine. Naive CD4^+ T cells were separated from the splenocytes of 8-month-old C57BL/6 female mice using the Naive CD4^+ T cell Isolation Kit (Stem Cell, Cat No. 19765) and were induced to Th1 differentiation by 20 ng/mL IL-12. After 3 days, a total of 5×10^5 cells/well Th1 cells and Th0 cells in 0.5 mL of RPMI-1640 medium were plated into 48-well plates. ^13C-labelled phenylalanine and 5 mM amino transporter inhibitor BCH were added into indicated wells. After 0.5 h, cells were collected and washed twice with ice-cold D-PBS. 50 μL deionized water was added and cells were lysed through freezing and thawing twice at −80° C. The cell lysate was centrifuged at 12000×g for 10 min and ^13C-labelled phenylalanine in the supernatant was analyzed by Mass spectrometry.

LAT1 = LAT1 (Homo sapiens, UniProt Q01650); details: supplier description; cited from earlier work
LAT1, sequence (Q01650 whole entry, species assumed): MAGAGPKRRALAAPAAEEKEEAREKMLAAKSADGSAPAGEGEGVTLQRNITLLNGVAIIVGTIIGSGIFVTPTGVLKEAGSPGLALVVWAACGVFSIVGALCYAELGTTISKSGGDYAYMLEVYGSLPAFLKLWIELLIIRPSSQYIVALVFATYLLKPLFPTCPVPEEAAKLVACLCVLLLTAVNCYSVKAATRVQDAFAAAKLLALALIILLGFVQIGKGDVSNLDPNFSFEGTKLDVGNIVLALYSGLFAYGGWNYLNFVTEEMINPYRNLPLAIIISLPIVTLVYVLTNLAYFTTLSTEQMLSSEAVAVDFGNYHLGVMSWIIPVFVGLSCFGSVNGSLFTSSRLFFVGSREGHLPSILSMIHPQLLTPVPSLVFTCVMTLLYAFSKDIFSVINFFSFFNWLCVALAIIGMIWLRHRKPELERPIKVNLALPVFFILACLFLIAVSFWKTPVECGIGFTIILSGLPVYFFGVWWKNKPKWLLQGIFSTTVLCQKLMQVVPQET
LAT1, sequence (P08195 102-630 partner, species assumed): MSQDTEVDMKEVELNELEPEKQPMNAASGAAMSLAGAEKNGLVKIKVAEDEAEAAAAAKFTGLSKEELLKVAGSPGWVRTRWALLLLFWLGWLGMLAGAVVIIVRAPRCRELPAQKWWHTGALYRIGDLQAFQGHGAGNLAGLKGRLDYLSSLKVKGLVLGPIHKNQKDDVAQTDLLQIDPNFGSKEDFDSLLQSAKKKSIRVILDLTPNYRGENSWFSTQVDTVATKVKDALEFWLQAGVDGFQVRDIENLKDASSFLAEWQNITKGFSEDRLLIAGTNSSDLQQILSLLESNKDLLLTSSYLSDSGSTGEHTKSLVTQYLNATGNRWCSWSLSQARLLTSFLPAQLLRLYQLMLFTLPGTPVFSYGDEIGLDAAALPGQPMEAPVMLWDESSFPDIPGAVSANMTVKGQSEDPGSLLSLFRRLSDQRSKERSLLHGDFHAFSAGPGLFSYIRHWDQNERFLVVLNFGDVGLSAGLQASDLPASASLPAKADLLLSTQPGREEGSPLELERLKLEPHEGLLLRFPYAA

T1 sequence (Q9Z127 whole entry): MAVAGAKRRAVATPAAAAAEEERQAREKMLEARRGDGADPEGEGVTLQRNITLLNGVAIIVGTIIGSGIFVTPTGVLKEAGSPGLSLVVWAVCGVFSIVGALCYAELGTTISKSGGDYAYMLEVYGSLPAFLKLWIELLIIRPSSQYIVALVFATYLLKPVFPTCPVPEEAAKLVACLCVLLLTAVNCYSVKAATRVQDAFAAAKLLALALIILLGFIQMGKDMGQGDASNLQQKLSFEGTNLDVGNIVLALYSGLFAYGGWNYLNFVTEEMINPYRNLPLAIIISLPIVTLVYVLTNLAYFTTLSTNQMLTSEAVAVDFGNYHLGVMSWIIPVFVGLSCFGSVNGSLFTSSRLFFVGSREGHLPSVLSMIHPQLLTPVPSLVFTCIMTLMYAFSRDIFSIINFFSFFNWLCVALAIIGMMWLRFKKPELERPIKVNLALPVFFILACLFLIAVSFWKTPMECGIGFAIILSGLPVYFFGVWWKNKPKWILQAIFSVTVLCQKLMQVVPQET
T1 sequence (P10852 whole entry partner): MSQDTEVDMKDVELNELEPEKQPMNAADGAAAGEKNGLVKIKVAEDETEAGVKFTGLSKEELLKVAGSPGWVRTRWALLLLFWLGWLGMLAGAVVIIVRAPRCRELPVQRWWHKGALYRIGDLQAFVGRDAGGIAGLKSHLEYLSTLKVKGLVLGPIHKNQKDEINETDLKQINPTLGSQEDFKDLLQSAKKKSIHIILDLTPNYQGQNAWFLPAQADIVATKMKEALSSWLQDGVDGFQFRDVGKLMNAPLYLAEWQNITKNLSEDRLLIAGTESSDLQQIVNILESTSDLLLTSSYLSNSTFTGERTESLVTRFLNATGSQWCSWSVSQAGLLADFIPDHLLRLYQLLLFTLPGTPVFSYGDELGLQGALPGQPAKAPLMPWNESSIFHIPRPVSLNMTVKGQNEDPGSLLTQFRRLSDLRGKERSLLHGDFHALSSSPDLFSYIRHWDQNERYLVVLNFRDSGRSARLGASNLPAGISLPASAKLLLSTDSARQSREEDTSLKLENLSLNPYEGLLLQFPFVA

N[C@@H](Cc1ccccc1)C(=O)O [phenylalanine]
Th1 cell count in the blood (C57 mice): increased significantly | Th0 cell differentiation into Th1 cells (naive CD4+ T cells): increased | Th1 cell proliferation (naive CD4+ T cells): increased

Nc1cc(COc2c(Cl)cc(C[C@H](N)C(=O)O)cc2Cl)c2oc(-c3ccccc3)nc2c1 [JPH 203]
proportion of pro-inflammatory Th1 cells in the mouse brain ([1]; 50 mg/kg): significantly reduces the proportion of Th1 cells in the mouse brain | proportion of pro-inflammatory Th1 cells in the mouse brain ([1]; listed as JPH203, 50 mg/kg): effectively inhibits the proportion of Th1 cells in the brain; also recorded: significantly downregulated the proportion of pro-inflammatory Th1 cells in the mouse brain | uptake of 13C-labelled phenylalanine by CD4+ T cells (SLC7A5): blocked | LAT1 selectivity (LAT1): selectively inhibits LAT1

CC[C@H](C)[C@H](N)C(=O)O [isoleucine]
Th1 cell count in the blood (C57 mice): increased significantly | Th0 cell differentiation into Th1 cells (naive CD4+ T cells): increased | Th1 cell proliferation (naive CD4+ T cells): increased
